Measurements taken from patent US20120024744A1, “Soil-related and/or Crop-related Applications for Chlorine Dioxide” (DHARMA IP, LLC, priority 2010, published 2012).

Test: Enhanced solubility of beta-cyclodextrin in water containing ClO2
Type: physicochemical
Settings: 100 g slurries, 5% (w/w) in 8000 ppm ClO2 vs ultrapure water, 200 rpm, 3 days

- weight of dried undissolved beta-cyclodextrin, ClO2 containing slurry less than control slurry: 0.32 g
SMILES: OC[C@H]1O[C@@H]2O[C@H]3[C@H](O)[C@@H](O)[C@@H](O[C@H]4[C@H](O)[C@@H](O)[C@@H](O[C@H]5[C@H](O)[C@@H](O)[C@@H](O[C@H]6[C@H](O)[C@@H](O)[C@@H](O[C@H]7[C@H](O)[C@@H](O)[C@@H](O[C@H]8[C@H](O)[C@@H](O)[C@@H](O[C@H]1[C@H](O)[C@H]2O)O[C@@H]8CO)O[C@@H]7CO)O[C@@H]6CO)O[C@@H]5CO)O[C@@H]4CO)O[C@@H]3CO [beta-cyclodextrin]
